{"source": "patent US20090227503A1", "about": "“PARATHYROID HORMONE TREATMENT FOR ENHANCED ALLOGRAFT AND TISSUE-ENGINEERED RECONSTRUCTION OF BONE DEFECTS” (UNIVERSITY OF ROCHESTER, priority 2008, published 2009)", "system": "callus vasculature of grafted femurs", "assay": "Callus vascularization by micro-CT after vascular perfusion (Example 4)", "assay_type": "in vivo, mice", "conditions": "for vessel volume within callus, more in saline treated than PTH treated specimens: not significant, n=4 per group", "procedure": "A second cohort of 16 animals underwent the same surgery with sacrifice of 8 animals at 4 weeks and 8 animals at 6 weeks post-surgery to evaluate the degree of vascularization of the graft and callus region using vascular profusion as described previously (Duvall 2004). Half of the animals were treated with PTH, and the other half with saline.\nOn the day of sacrifice, animals were injected with a fatal dose of ketamine and xylazine and their vasculature was perfused using a syringe pump through a needle placed into the left ventricle of the heart. The right atrium was also punctured to allow the blood to drain out. They were first perfused with heparinized (100 units/ml) saline to prevent blood clotting, followed by 10% neutral-buffered formalin, and lastly with lead-chromate contrast agent (Microfil 122, Flow Tech, Inc. Carver, Mass.). Samples were fixed in 10% formalin overnight followed by harvest of the femur and pin extraction. Samples were micro-CT scanned once after fixation, and again after EDTA decalcification. Using both scans the vasculature was evaluated within the mineralized callus. The vessel volume, thickness, spacing and vessel number was determined.", "data": [{"molecule": "CC[C@H](C)[C@H](NC(=O)[C@H](CCC(=O)O)NC(=O)[C@H](CO)NC(=O)[C@@H](NC(=O)[C@@H](N)CO)C(C)C)C(=O)N[C@@H](CCC(N)=O)C(=O)N[C@@H](CC(C)C)C(=O)N[C@@H](CCSC)C(=O)N[C@@H](Cc1cnc[nH]1)C(=O)N[C@@H](CC(N)=O)C(=O)N[C@@H](CC(C)C)C(=O)NCC(=O)N[C@@H](CCCCN)C(=O)N[C@@H](Cc1cnc[nH]1)C(=O)N[C@@H](CC(C)C)C(=O)N[C@@H](CC(N)=O)C(=O)N[C@@H](CO)C(=O)N[C@@H](CCSC)C(=O)N[C@@H](CCC(=O)O)C(=O)N[C@@H](CCCN=C(N)N)C(=O)N[C@H](C(=O)N[C@@H](CCC(=O)O)C(=O)N[C@@H](Cc1c[nH]c2ccccc12)C(=O)N[C@@H](CC(C)C)C(=O)N[C@@H](CCCN=C(N)N)C(=O)N[C@@H](CCCCN)C(=O)N[C@@H](CCCCN)C(=O)N[C@@H](CC(C)C)C(=O)N[C@@H](CCC(N)=O)C(=O)N[C@@H](CC(=O)O)C(=O)N[C@H](C(=O)N[C@@H](Cc1cnc[nH]1)C(=O)N[C@@H](CC(N)=O)C(=O)N[C@@H](Cc1ccccc1)C(=O)O)C(C)C)C(C)C", "note": "[PTH, PTH (1-34)]", "values": [{"measurement": "vessel volume within callus, more in saline treated than PTH treated specimens", "setting": "4 weeks", "result": 74, "unit": "%"}, {"measurement": "blood vessel diameter, greater in saline treated than PTH treated specimens", "setting": "4 weeks, p=0.05", "result": 55, "unit": "%"}, {"measurement": "blood vessel diameter, greater in saline treated than PTH treated specimens", "setting": "6 weeks", "result": 78, "unit": "%"}, {"measurement": "vessel volume within callus, more in saline treated than PTH treated specimens", "setting": "6 weeks", "result": 88, "unit": "%"}, {"measurement": "specimens in which the intramedullary blood vessel had bridged the length of the graft", "setting": "by 6 weeks, saline 3 of 4", "result": "4 of 4"}]}]}
